Experimental data from patent USRE47193E1, “Selectively substituted quinoline compounds” (EISAI R&D MANAGEMENT CO., LTD., priority 2013, dated 2019).
pIC50: −log10 of the molar value.

System: Human TLR7/8
Assay: Human PBMC cell-based assay, TLR7/8 stimulus (RNA-Ig), cytokine ELISA
Settings: primary human PBMC assay, TLR7/8 potency; ligand not given; read-out: Human PBMCs IC50
Protocol: Human PBMC Cell-Based Assay. Human peripheral blood mononuclear cells (PBMC) were isolated from freshly-drawn heparinized (10 USP units/ml, Hospira, Lakeforest, Ill.) healthy donor whole blood by density gradient (Histopaque® 1077, Sigma, Inc., St. Louis, Mo.). Briefly, 25 ml blood was diluted with 15 ml PBS (without Ca^2+, Mg^2+) in a 50 ml conical tube, and 12 ml Histopaque was underlaid using a spinal needle. Tubes were centrifuged for 45 minutes at 1200 rpm (350×g), and PBMC were collected from the buffy coat. Cells were then washed twice in PBS, and red blood cells were lysed by suspension in 5 ml ammonium chloride solution (1× Red Blood Cell Lysis Buffer, eBioscience) for 5 minutes at room temperature. After a final wash in PBS, PBMC were resuspended at a final concentration of 2×10^6/ml in RPMI-1640 media with L-glutamine (Invitrogen) and supplemented with 25 mM HEPES (Mediatech, Inc, Manassas Va.), 10% fetal bovine serum (HyClone, Logan, Utah), and Penicillin-Streptomycin-Glutamine (Mediatech) and plated at 100 ul/well (2×10^5 cells/well) in tissue culture treated 96-well plates (Falcon).
Antagonist compounds solubilized and serial diluted in 100% DMSO were added in triplicate to cells to yield a final concentration of 0.1% DMSO (v/v). Hydroxychloroquine (Acros Organics) solubilized and serial diluted in PBS was added in triplicate to cells. PBMC were incubated with antagonist compounds or HCQ for 30 minutes at 37° C., 5% CO2 before adding various TLR agonist reagents in 100 ul complete media per well as follows (final concentrations indicated): R848 (Resiquimod; GLSynthesis, Worcester, Mass.) at 1 uM for TLR7 and TLR8, LPS (Sigma) at 10 ng/ml for TLR4, and CpG-2216 (InvivoGen) at 5 ug/ml for TLR9. To prepare a TLR7/8 agonist that mimics RNA-containing auto-antibody immune complexes in lupus patients, a 26-mer RNA with a sequence derived from human U1 snRNA stem loop IV [(sequence: […]-[…] (SEQ ID NO: 2) with phosphorothioate backbone] was synthesized (Dharmacon, Inc., Lafayette, Colo.), which has been shown previously to be a potent TLR7 and TLR8 agonist. This RNA molecule was diluted to 2.5 μM in serum-free RPMI, and mouse anti-human single stranded DNA monoclonal antibody (MAB3034, Millipore, Inc., Billerica, Mass.), which also cross-reacts with RNA, was added at a 1:25 dilution or at 1 ug/ml. The resulting “RNA-Ig” stimulus was incubated at room temperature for 15-30 minutes before adding to cells. PBMC were incubated with the various TLR agonists for 20 hours at 37° C., 5% CO2. Cell culture supernatants were collected, and levels of various human cytokines were assessed as indicated by standard ELISA procedure according to the manufacturer's recommended protocol (BD Biosciences, Inc., San Diego, Calif.). In a subsequent assay (Table 6) the ability of ER-899742 to block stimulation of normal PBMC by various TLR7/8 ligands, but not DNA-mediated activation of TLR9, was examined. In this assay cells were plated at 1×10^5 cells/well in 100 ul in 96-well plates.

Row | SMILES | pIC50
1 | CC1CN(c2ccc(C#N)c3ncccc23)CC(C(=O)NCC2(F)CCNCC2)O1 (centres unmarked) [ER-899019] | 7.85
2 | CC1CN(c2ccc(C#N)c3ncccc23)CC(C(=O)NCC2CNC2)O1 (centres unmarked) [ER-899020] | 7.46
3 | C[C@@H]1CN(c2ccc(C#N)c3ncccc23)C[C@H](C(=O)N2CC3(CCCNC3)C2)O1 [ER-899021] | 8.30
4 | CC1CN(c2ccc(C#N)c3ncccc23)CC(C(=O)NCC2COC2)O1 (centres unmarked) [ER-899121] | 6.85
5 | CNCCNC(=O)C1CN(c2ccc(C#N)c3ncccc23)CC(C)O1 (centres unmarked) [ER-899140] | 7.96
6 | C[C@@H]1CN(c2ccc(C#N)c3ncccc23)C[C@H](C(=O)NCCN(C)C)O1 [ER-899154] | 7.85
7 | CC1CN(c2ccc(C#N)c3ncccc23)CC(C(=O)NCCC(O)C(F)(F)F)O1 (centres unmarked) [ER-899160] | 6.60
8 | CC1CN(c2ccc(C#N)c3ncccc23)CC(C(=O)NCC2CNCCO2)O1 (centres unmarked) [ER-899278] | 9.00
9 | CC1CN(c2ccc(C#N)c3ncccc23)CC(C(=O)Nc2ccncc2)O1 (centres unmarked) [ER-899282] | 7.47
10 | CC1CN(c2ccc(C#N)c3ncccc23)CC(C(=O)NCc2ccn[nH]2)O1 (centres unmarked) [ER-899287] | 6.92
11 | CC1CN(c2ccc(C#N)c3ncccc23)CC(C(=O)NCC2CCCCN2C)O1 (centres unmarked) [ER-899293] | 7.89
12 | C[C@@H]1CN(c2ccc(C#N)c3ncccc23)C[C@H](C(=O)Nc2n[nH]cc2C#N)O1 [ER-899295] | 7.49
13 | C[C@@H]1CN(c2ccc(C#N)c3ncccc23)C[C@H](C(=O)N[C@H]2CN(C)C[C@H]2F)O1 [ER-899332] | 7.85
14 | CC1CNCC(CNC(=O)C2CN(c3ccc(C#N)c4ncccc34)CC(C)O2)O1 (centres unmarked) [ER-899366] | 9.00
15 | CC1CN(c2ccc(C#N)c3ncccc23)CC(C(=O)N2CC3CNCC3C2)O1 (centres unmarked) [ER-899367] | 7.92
16 | CC1CN(c2ccc(C#N)c3ncccc23)CC(C(=O)NCC2CCCN2)O1 (centres unmarked) [ER-899414] | 7.60
17 | CC1CN(c2ccc(C#N)c3ncccc23)CC(C(=O)NCC2CCCCN2)O1 (centres unmarked) [ER-899415] | 7.89
18 | C[C@@H]1CN(c2ccc(C#N)c3ncccc23)C[C@H](C(=O)NC2CC3CCC(C2)N3)O1 (some centres unmarked) [ER-899416] | 6.37
19 | CNC(=O)[C@H]1CN(c2ccc(C#N)c3ncccc23)C[C@@H](C)O1 [ER-899431] | 6.46
20 | CC1CN(c2ccc(C#N)c3ncccc23)CC(C(=O)N2CCC(N(C)C)CC2)O1 (centres unmarked) [ER-899459] | 7.80
21 | CC1CN(c2ccc(C#N)c3ncccc23)CC(C(=O)NC2CC3(CNC3)C2)O1 (centres unmarked) [ER-899479] | 8.70
22 | C[C@@H]1CN(c2ccc(C#N)c3ncccc23)C[C@H](C(=O)N2CCC(N)CC2)O1 [ER-899588] | 8.15
23 | CCN1CCC(NC(=O)[C@H]2CN(c3ccc(C#N)c4ncccc34)C[C@@H](C)O2)CC1 [ER-899626] | 9.00
